From ChEMBL document CHEMBL6083204, “Synthesis of a celastrol derivative as a cancer stem cell inhibitor through regulation of the STAT3 pathway for treatment of ovarian cancer” (RSC Med Chem, 2024)

Experiments:
SK-OV-3 = test: Antiproliferative activity against human SK-OV-3 cells assessed as inhibition of cell growth incubated for 72 hrs by MTT assay; type: functional, cell-based; conditions: SK-OV-3, 72 h
A2780 = test: Antiproliferative activity against human A2780 cells assessed as inhibition of cell growth incubated for 72 hrs by MTT assay; type: functional, cell-based; conditions: A2780, 72 h
OVCAR-3 = test: Antiproliferative activity against human OVCAR-3 cells assessed as inhibition of cell growth incubated for 72 hrs by MTT assay; type: functional, cell-based; conditions: OVCAR-3, 72 h
[1] = Cytotoxicity against human IOSE80 cells assessed as inhibition of cell growth incubated for 72 hrs by MTT assay; type: toxicity, cell-based
[2] = Selectivity index, ratio of IC50 for cytotoxicity against human IOSE80 cells to IC50 for cytotoxicity against human SK-OV-3 cells

Row | Compound | IC50 (SK-OV-3) [µM] | IC50 (A2780) [µM] | IC50 (OVCAR-3) [µM] | IC50 at 72 h [1] [µM] | Ratio IC50 [2]
1 | CC1=C(O)C(=O)C=C2C1=CC=C1[C@@]2(C)CC[C@@]2(C)[C@@H]3C[C@](C)(C(=O)O)CC[C@]3(C)CC[C@]12C [CELASTROL] | 1.27 | 1.99 | 0.84 | 2.38 | 1.87
2 | COc1cccc2c1C(=O)c1c(O)c3c(c(O)c1C2=O)C[C@@](O)(C(=O)CO)C[C@@H]3O[C@H]1C[C@H](N)[C@H](O)[C@H](C)O1 [DOXORUBICIN] | 1.68 | 4.18 |  | 0.76 | 
